Measured values reported in US8466139B2, “Formulation” (AstraZeneca AB, priority 2000, dated 2013).

Assays:
[1] = Dissipation of 14C labelled benzyl alcohol from the injection site; format: in vivo
From the text: This finding is indeed surprising for the following reasons. • 1. […] It is believed that the tissue irritation/inflammation was due to the presence of fulvestrant in the form of solid particles. The release profile appeared to be determined by the extent of inflammation/irritation present at the injection site and this was variable and difficult to control.

[2] = tested on: human breast cancer cells; conditions: block of oestradiol-stimulated growth, human breast cancer cells in vitro; cited from earlier work
[3] = Solubility of fulvestrant in different solvents; format: physicochemical; conditions: Water, 25° C.
uterus = conditions: intact adult rats, cited from earlier work

time to removal from the body after administration [1] [h]	SOLUBILITY [3] [mgml^−1]	SMILES	potency and effectiveness compared with tamoxifen [2]	effect on bone density (uterus; at dose giving maximum regression of the uterus)	regression of the uterus (uterus)
≤ 24		OCc1ccccc1 [^14C labelled benzyl alcohol, benzyl alcohol]			
	0.001	C[C@]12CC[C@@H]3c4ccc(O)cc4C[C@@H](CCCCCCCCC[S+]([O-])CCCC(F)(F)C(F)(F)F)[C@H]3[C@@H]1CC[C@@H]2O (stereo partly drawn) [fulvestrant, 7α-[9-(4,4,5,5,5-Pentafluoropentylsulphinyl)nonyl]oestra-1,3-5(10)-triene-3,17β-diol]	more potent and more effective than tamoxifen	does not adversely affect	maximum regression
